Starred links: 1 amine or outer side, 2 acyl side, 3 side chain; linkers in the order of their positions; H or OH if unused. Non-standard residues stand in square brackets, D forms with d. Residues, ends and D or L forms follow the SMILES beside them. Groups on a side chain read outwards from the residue. *: point of attachment. C20 diacid = O=C(O)CCCCCCCCCCCCCCCCCCC(=O)*; αMePhe(2-F) = C[C@](N)(Cc1ccccc1F)C(=O)O; γGlu = O=C(O)[C@H](CCC(=O)[*:2])N[*:1]; αMeF = C[C@](N)(Cc1ccccc1)C(=O)O; αMeL = CC(C)C[C@](C)(N)C(=O)O; AEEA = NCCOCCOCC(=O)O; Ac3c = NC1(C(=O)O)CC1; Aib = CC(C)(N)C(=O)O
Key:
Human GIP R = biological target: T1, Human GIP R (Homo sapiens, UniProt P48546); experiment: cAMP (HTRF) activity in CHO cells stably overexpressing GIP receptor; type: cell-based; conditions: EC50 of human GIP / EC50 of compound
T1 construct: expressed in transfected cells; host or cells: CHO
T1 sequence (P48546 22-466): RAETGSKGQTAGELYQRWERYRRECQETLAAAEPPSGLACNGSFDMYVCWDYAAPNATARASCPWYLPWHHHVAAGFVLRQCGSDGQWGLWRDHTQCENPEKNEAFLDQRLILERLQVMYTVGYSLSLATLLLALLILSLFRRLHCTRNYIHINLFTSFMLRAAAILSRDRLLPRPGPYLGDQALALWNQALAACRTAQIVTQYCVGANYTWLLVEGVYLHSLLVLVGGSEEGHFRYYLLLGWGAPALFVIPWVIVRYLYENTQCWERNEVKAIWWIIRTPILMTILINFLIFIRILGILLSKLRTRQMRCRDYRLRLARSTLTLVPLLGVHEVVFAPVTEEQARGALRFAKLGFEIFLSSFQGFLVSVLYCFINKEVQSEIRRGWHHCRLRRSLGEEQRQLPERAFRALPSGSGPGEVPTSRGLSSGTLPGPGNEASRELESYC
How it was run: (§1)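 Cells resuspended in HBSS are incubated with compound for 60 min at room temperature, then with HTRF cAMP detection reagent for a further 60 min. Concentration-response fits give agonist EC50 values in nM.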

Human GCG R = biological target: T2, Human GCG R (Homo sapiens, UniProt P47871); experiment: cAMP (HTRF) activity in HEK-293 cells stably overexpressing human GCG receptor; type: cell-based; conditions: EC50 of human GCG / EC50 of compound
T2 construct: expressed in transfected cells; host or cells: HEK-293
How it was run: as §1

RIN-m5F cells = type: cell-based, rat; conditions: for Rel. A (Relative Activity) on RIN-m5F: relative to GLP-1(7-37)
How it was run: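 After 60 min room-temperature exposure of HBSS-suspended RIN-m5F cells to compound and another 60 min with detection reagent, cellular cAMP level was determined.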

3T3-L1 adipocytes = conditions: for Rel. A (Relative Activity) on 3T3-L1 adipocyte: relative to GIP
How it was run: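 Compound-induced cAMP was measured in mature 3T3-L1 adipocytes after 60 min room-temperature exposure to a 10-concentration, 3-fold dilution series, followed by 60 min with kit detection reagent and curve fitting. Differentiation used IBMX/dexamethasone/insulin (5 days), insulin with 10 uM rosiglitazone (3 days), then 2–3 days in 10% FBS.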

[1] = system: human primary liver cells; type: cell-based; conditions: for Rel. A (Relative Activity) on human primary liver cells: relative to GCG
How it was run: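 cAMP readout after 60 min with detection reagent, following 60 min room-temperature compound incubation. Cells were primary human liver cells thawed at 37° C and resuspended in HBSS.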

Human GLP-1R = Human GLP-1R (Homo sapiens, UniProt P43220); experiment: cAMP (HTRF) activity in HEK-293 cells stably overexpressing human GLP-1 receptor; type: cell-based; set-up: expressed in transfected cells; host or cells: HEK-293; conditions: for Human GLP-1R Rel. A (Relative Activity): EC50 of human GLP-1 (7-37) / EC50 of compound; for EC50: stable transfected cell cAMP activity, at least 3 independent tests
How it was run: as §1

Sequence of Human GLP-1R (P43220 24-463): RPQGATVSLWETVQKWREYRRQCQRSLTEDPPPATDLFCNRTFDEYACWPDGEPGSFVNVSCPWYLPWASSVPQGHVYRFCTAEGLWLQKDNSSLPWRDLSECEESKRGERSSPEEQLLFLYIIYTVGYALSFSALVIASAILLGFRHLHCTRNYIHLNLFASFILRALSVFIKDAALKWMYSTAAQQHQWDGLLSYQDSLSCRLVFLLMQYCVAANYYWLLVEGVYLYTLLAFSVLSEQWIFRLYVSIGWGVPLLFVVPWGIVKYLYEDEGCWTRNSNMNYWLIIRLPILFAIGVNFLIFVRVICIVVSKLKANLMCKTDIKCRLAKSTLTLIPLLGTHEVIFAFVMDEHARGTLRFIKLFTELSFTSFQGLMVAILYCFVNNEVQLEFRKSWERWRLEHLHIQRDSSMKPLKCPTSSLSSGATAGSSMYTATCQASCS
T2 sequence (P47871 26-477): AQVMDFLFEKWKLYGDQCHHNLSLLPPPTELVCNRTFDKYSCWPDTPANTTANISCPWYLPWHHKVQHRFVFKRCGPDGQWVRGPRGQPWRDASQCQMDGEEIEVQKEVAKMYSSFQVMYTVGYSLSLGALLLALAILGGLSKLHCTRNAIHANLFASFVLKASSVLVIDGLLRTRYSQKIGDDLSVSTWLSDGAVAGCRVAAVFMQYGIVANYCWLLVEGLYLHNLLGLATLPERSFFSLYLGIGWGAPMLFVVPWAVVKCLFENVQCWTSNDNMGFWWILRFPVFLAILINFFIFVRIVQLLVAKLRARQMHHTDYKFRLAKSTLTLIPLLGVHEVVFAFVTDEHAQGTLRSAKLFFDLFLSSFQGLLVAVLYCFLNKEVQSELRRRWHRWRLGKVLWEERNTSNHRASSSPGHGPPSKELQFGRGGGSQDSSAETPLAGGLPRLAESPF

Q: With CC[C@H](C)[C@H](NC(=O)[C@H](Cc1ccccc1)NC(=O)[C@H](C)NC(=O)C(C)(C)NC(=O)[C@H](CCC(N)=O)NC(=O)[C@H](C)NC(=O)[C@H](CCCCNC(=O)COCCOCCNC(=O)COCCOCCNC(=O)CC[C@H](NC(=O)CCCCCCCCCCCCCCCCCCC(=O)O)C(=O)O)NC(=O)[C@H](CCCCN)NC(=O)[C@H](CC(=O)O)NC(=O)[C@H](CC(C)C)NC(=O)[C@H](CC(C)C)NC(=O)[C@@H](NC(=O)[C@H](CO)NC(=O)[C@H](Cc1ccc(O)cc1)NC(=O)[C@H](CC(=O)O)NC(=O)[C@H](CO)NC(=O)[C@@H](NC(=O)[C@](C)(Cc1ccccc1F)NC(=O)[C@@H](NC(=O)CNC(=O)[C@H](CCC(N)=O)NC(=O)C(C)(C)NC(=O)[C@@H](N)Cc1ccc(O)cc1)[C@@H](C)O)[C@@H](C)O)[C@@H](C)CC)C(=O)N[C@@H](CCC(=O)O)C(=O)N[C@@H](Cc1ccccc1)C(=O)N[C@@H](CC(C)C)C(=O)N[C@@H](CC(C)C)C(=O)N[C@@H](CCC(=O)O)C(=O)N[C@@H](CO)C(=O)N[C@@H](Cc1c[nH]cn1)C(=O)N1CCC[C@H]1C(=O)N[C@@H](CO)C(=O)N[C@@H](CO)C(=O)NC(C)(C)C(=O)N[C@@H](Cc1c[nH]cn1)C(=O)N1CCC[C@H]1C(=O)N1CCC[C@H]1C(=O)NC1(C(=O)N[C@@H](CO)C(N)=O)CC1 [Compound 41] (H-Y[Aib]QGT[αMePhe(2-F)]TSDYSILLDKK([AEEA-AEEA-γGlu-C20 diacid])AQ[Aib]AFIEFLLESHPSS[Aib]HPP[Ac3c]S-NH2; N-terminus assumed) as the compound, how does the “Human GIP R Rel. A (Relative Activity)” value (Human GIP R) read?
A: 247.95%

Q: What about the “Human GCG R Rel. A (Relative Activity)” value (Human GCG R) of the same compound?
A: 70.37%

Q: What about the EC50 (RIN-m5F cells) of the same compound?
A: 136 pM

Q: And the “Rel. A (Relative Activity) on RIN-m5F” value (RIN-m5F cells)?
A: 758.82%

Q: And the EC50 (3T3-L1 adipocytes)?
A: 1510 pM

Q: And the “Rel. A (Relative Activity) on 3T3-L1 adipocyte” value (3T3-L1 adipocytes)?
A: 252.12%

Q: And the EC50 [1]?
A: 907 pM

Q: And the “Rel. A (Relative Activity) on human primary liver cells” value [1]?
A: 429.00%

Q: And the “Human GLP-1R Rel. A (Relative Activity)” value (Human GLP-1R)?
A: 366.67%

Q: What about the EC50 (Human GLP-1R) of the same compound?
A: 12 pM

Q: For CC[C@H](C)[C@H](NC(=O)[C@H](Cc1ccccc1)NC(=O)[C@H](C)NC(=O)C(C)(C)NC(=O)[C@H](CCC(N)=O)NC(=O)[C@H](C)NC(=O)[C@H](CCCCNC(=O)COCCOCCNC(=O)COCCOCCNC(=O)CC[C@H](NC(=O)CCCCCCCCCCCCCCCCCCC(=O)O)C(=O)O)NC(=O)[C@H](CCCCN)NC(=O)[C@H](CC(=O)O)NC(=O)[C@H](CC(C)C)NC(=O)[C@H](CC(C)C)NC(=O)[C@@H](NC(=O)[C@H](CO)NC(=O)[C@H](Cc1ccc(O)cc1)NC(=O)[C@H](CC(=O)O)NC(=O)[C@H](CO)NC(=O)[C@@H](NC(=O)[C@](C)(Cc1ccccc1)NC(=O)[C@@H](NC(=O)CNC(=O)[C@H](CCC(N)=O)NC(=O)C(C)(C)NC(=O)[C@@H](N)Cc1ccc(O)cc1)[C@@H](C)O)[C@@H](C)O)[C@@H](C)CC)C(=O)N[C@@H](CCC(=O)O)C(=O)N[C@@H](Cc1ccccc1)C(=O)N[C@@H](CC(C)C)C(=O)N[C@@H](CC(C)C)C(=O)N[C@@H](CCC(=O)O)C(=O)N[C@@H](CO)C(=O)N[C@@H](Cc1c[nH]cn1)C(=O)N1CCC[C@H]1C(=O)N[C@@H](CO)C(=O)N[C@@H](CO)C(=O)NC(C)(C)C(=O)N[C@@H](Cc1c[nH]cn1)C(=O)N1CCC[C@H]1C(=O)N1CCC[C@H]1C(=O)NC1(C(=O)N[C@@H](CO)C(N)=O)CC1 [Compound 42] (H-Y[Aib]QGT[αMeF]TSDYSILLDKK([AEEA-AEEA-γGlu-C20 diacid])AQ[Aib]AFIEFLLESHPSS[Aib]HPP[Ac3c]S-NH2; N-terminus assumed), which “Human GIP R Rel. A (Relative Activity)” value (Human GIP R) is on record?
A: 258.57%

Q: And the “Human GCG R Rel. A (Relative Activity)” value (Human GCG R)?
A: 11.52%

Q: And the EC50 (RIN-m5F cells)?
A: 359 pM

Q: What about the “Rel. A (Relative Activity) on RIN-m5F” value (RIN-m5F cells) of the same compound?
A: 287.47%

Q: What about the EC50 (3T3-L1 adipocytes) of the same compound?
A: 2730 pM

Q: What about the “Rel. A (Relative Activity) on 3T3-L1 adipocyte” value (3T3-L1 adipocytes) of the same compound?
A: 139.17%

Q: And the EC50 [1]?
A: 1360 pM

Q: And the “Rel. A (Relative Activity) on human primary liver cells” value [1]?
A: 285.26%

Q: What about the “Human GLP-1R Rel. A (Relative Activity)” value (Human GLP-1R) of the same compound?
A: 488.89%

Q: And the EC50 (Human GLP-1R)?
A: 9 pM

Q: CC[C@H](C)[C@H](NC(=O)[C@H](Cc1ccccc1)NC(=O)[C@H](C)NC(=O)C(C)(C)NC(=O)[C@H](CCC(N)=O)NC(=O)[C@H](C)NC(=O)[C@H](CCCCNC(=O)COCCOCCNC(=O)COCCOCCNC(=O)CC[C@H](NC(=O)CCCCCCCCCCCCCCCCCCC(=O)O)C(=O)O)NC(=O)[C@H](CCCCN)NC(=O)[C@H](CC(=O)O)NC(=O)[C@H](CC(C)C)NC(=O)[C@](C)(CC(C)C)NC(=O)[C@@H](NC(=O)[C@H](CO)NC(=O)[C@H](Cc1ccc(O)cc1)NC(=O)[C@H](CC(=O)O)NC(=O)[C@H](CO)NC(=O)[C@@H](NC(=O)[C@](C)(Cc1ccccc1F)NC(=O)[C@@H](NC(=O)CNC(=O)[C@H](CCC(N)=O)NC(=O)C(C)(C)NC(=O)[C@@H](N)Cc1ccc(O)cc1)[C@@H](C)O)[C@@H](C)O)[C@@H](C)CC)C(=O)N[C@@H](CCC(=O)O)C(=O)N[C@@H](Cc1ccc(O)cc1)C(=O)N[C@@H](CC(C)C)C(=O)N[C@@H](CC(C)C)C(=O)N[C@@H](CCC(=O)O)C(=O)N[C@@H](CO)C(=O)N[C@@H](Cc1c[nH]cn1)C(=O)N1CCC[C@H]1C(=O)N[C@@H](CO)C(=O)N[C@@H](CO)C(=O)NC(C)(C)C(=O)N[C@@H](Cc1c[nH]cn1)C(=O)N1CCC[C@H]1C(=O)N1CCC[C@H]1C(=O)NC1(C(=O)N[C@@H](CO)C(N)=O)CC1 [Compound 43] (H-Y[Aib]QGT[αMePhe(2-F)]TSDYSI[αMeL]LDKK([AEEA-AEEA-γGlu-C20 diacid])AQ[Aib]AFIEYLLESHPSS[Aib]HPP[Ac3c]S-NH2) was tested. Which “Human GIP R Rel. A (Relative Activity)” value (Human GIP R) did it give?
A: 441.46%

Q: What about the “Human GCG R Rel. A (Relative Activity)” value (Human GCG R) of the same compound?
A: 44.88%

Q: What about the EC50 (RIN-m5F cells) of the same compound?
A: 260 pM

Q: What about the “Rel. A (Relative Activity) on RIN-m5F” value (RIN-m5F cells) of the same compound?
A: 396.92%

Q: What about the EC50 (3T3-L1 adipocytes) of the same compound?
A: 1360 pM

Q: What about the “Rel. A (Relative Activity) on 3T3-L1 adipocyte” value (3T3-L1 adipocytes) of the same compound?
A: 279.97%

Q: What about the EC50 [1] of the same compound?
A: 463 pM

Q: And the “Rel. A (Relative Activity) on human primary liver cells” value [1]?
A: 840.39%

Q: And the “Human GLP-1R Rel. A (Relative Activity)” value (Human GLP-1R)?
A: 440.00%

Q: And the EC50 (Human GLP-1R)?
A: 10 pM

— patent publication US20250129135A1, “Multi-Agonist and Use Thereof” (priority 2021, published 2025)
